The source of these data is patent US9040714B2 (MannKind Corporation, priority 2010, dated 2015).

Where only a bound is given, the exact number is not on record here.

human IRE-1α (GST-IRE-1α), sequence (O75460 19-977): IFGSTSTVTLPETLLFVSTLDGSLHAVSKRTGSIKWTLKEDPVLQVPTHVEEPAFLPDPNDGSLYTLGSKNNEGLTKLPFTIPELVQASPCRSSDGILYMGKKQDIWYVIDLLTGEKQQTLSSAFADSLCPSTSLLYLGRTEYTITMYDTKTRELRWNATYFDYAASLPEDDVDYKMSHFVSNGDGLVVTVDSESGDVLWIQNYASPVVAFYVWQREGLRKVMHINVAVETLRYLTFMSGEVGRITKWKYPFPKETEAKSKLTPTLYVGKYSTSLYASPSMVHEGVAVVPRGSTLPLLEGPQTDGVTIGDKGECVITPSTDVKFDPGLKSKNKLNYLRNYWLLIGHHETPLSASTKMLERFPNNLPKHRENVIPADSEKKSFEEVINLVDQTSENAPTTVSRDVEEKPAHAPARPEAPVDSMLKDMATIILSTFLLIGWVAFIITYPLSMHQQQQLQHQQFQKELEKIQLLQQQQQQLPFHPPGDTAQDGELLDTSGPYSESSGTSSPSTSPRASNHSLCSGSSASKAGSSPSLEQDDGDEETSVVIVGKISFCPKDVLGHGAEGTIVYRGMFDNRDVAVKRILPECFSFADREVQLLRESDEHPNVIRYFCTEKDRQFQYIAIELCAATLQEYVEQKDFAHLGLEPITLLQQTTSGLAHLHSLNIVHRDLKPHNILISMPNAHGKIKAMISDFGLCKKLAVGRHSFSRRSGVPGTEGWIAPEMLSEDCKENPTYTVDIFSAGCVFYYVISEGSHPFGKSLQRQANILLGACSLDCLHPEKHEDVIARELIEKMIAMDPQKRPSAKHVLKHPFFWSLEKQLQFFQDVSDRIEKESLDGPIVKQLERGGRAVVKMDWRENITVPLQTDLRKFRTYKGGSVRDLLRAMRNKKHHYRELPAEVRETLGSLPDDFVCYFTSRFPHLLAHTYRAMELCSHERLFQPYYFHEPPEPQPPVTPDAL

One experiment deals with human IRE-1α (GST-IRE-1α) (Homo sapiens (Human), UniProt O75460). Description: IRE-1α assay in vitro: cleavage of Cy5/BHQ2-labelled mini-XBP-1 mRNA stem-loop substrate. In kind it is biochemical. The conditions noted are these: average IC50 for inhibition of IRE-1α. The method, then:
In some embodiments IRE-la inhibitor compounds form a complex with IRE-1α. […] Other substrates also can be used to detect cleavage. See US 2007/0105123.
A fusion protein comprising glutathione S transferase (GST) and human IRE-1α (GST-IRE-1α) obtained from a 500 ml baculovirus-infected insect cell culture can be used to measure IRE-1α activity in vitro.
Five μl of a reaction mixture comprising IX reaction buffer (5× reaction buffer is 100 mM Hepes pH 7.5, 250 mM KOAc, 2.5 mM MgCl2), 3 mM DTT, and 0.4% polyethylene glycol water is added to each well of 384 well plates. Twenty-five nanoliters of a 1 mM test compound solution are added to test wells. Three μl of a […] IRE-1α preparation are added to each test well and to positive control wells (final concentration 5.82 ng/well). Negative control wells contain only reaction mixture and test compound.
After spinning the plates at 1200 rpm for 30 seconds, 3 μl of an IRE-1α human mini-XBP-1 mRNA stem-loop substrate 5′-[…]-3′ (SEQ ID NO:1), labeled with the fluorescent dye Cy5 at the 5′ end and Black Hole Quencher 2 (BH2) at the 3′ end, are added to each well of a control plate. The plates are again spun at 1200 rpm for 30 seconds. Final concentrations for the assay are: 63 nM IRE-1α substrate, 5.82 ng IRE-1α protein, and 2.5 μM test compound.
The plates are covered with lids and incubated for one hour at 30° C. The plates are then transferred to an ACQUEST™ microplate reader. Data is analyzed using data analysis software, and the percent activity of IRE-1α is calculated.
IC50 for inhibition of IRE-1α of compounds identified in Table 1 was measured as described in EXAMPLE 35.
`O=Cc1c(O)ccc2cc(C(=O)O)c(=O)oc12` [Example 8]: the IC50 (in general, the concentration that gives 50% inhibition) is above 10 µM.

Turning to `COc1cc2c(C)c(CCC(=O)N3CCOCC3)c(=O)oc2c(C=O)c1O` [Example 172], the IC50 is below 0.1 µM.

As for `COc1cc2c(CN3CCOCC3)c(C)c(=O)oc2c(C=O)c1O` [Example 132], the IC50 is below 0.1 µM.

On to `Cc1nc(N2CCc3c(ccc(O)c3C=O)C2)sc1C(=O)N1CCN(C)CC1` [Example 32], for which the half-maximal inhibitory concentration (IC50) is below 10 µM.

`O=Cc1c(O)ccc2c1CCN(C(=O)c1cccnc1)C2` [Example 31] showed a concentration for half-maximal inhibition (IC50) above 10 µM.

Regarding `CN1CCN(CC(=O)N2CCc3c(ccc(O)c3C=O)C2)CC1` [Example 30], the concentration for half-maximal inhibition (IC50) was above 10 µM.

The subject of another experiment is IRE-1α-mediated XBP-1 splicing in human myeloma MM.1s cells. As to the kind of experiment: Cellular EC50: endogenous XBP-1 splicing in myeloma cells by RT-PCR (DTT stress). In kind it is cell-based. The conditions noted are these: MM1.S, average cellular EC50, XBP-1 splicing in myeloma cells, read-out: EC50_av. The method, then: Human myeloma MM.1s cells are incubated with a compound for 1.25 hours before stressing the cells with 2 mM dithiothreitol (DTT). After an additional 45 minutes (2 hours total) with compound and DTT, the cells are harvested with TRIZOL® (a mono-phasic solution of phenol and guanidine isothiocyanate), and total RNA is prepared as directed by the manufacturer (Invitrogen). Human XBP-1 is amplified by RT-PCR with the following primers, which flank the 26 base unconventional intron excised by IRE-1α:
RT-PCR of unstressed (U) cells then generates the upper band. When cells are stressed (S) with the endoplasmic reticulum (ER) stressing agent DTT, IRE-1α is activated due to accumulating unfolded protein and the resulting RT-PCR, product is 26 base pairs shorter.
Compounds which pass specificity assays are assayed for cellular EC50 using endogenous XBP-1 splicing in myeloma cells. XBP-1 is regulated through the excision of a 26 nucleotide intron from the XBP-1 mRNA by the highly specific endoribonuclease activity of IRE-1α. […] This splicing event is used to measure IRE-1α activity on XBP-1 mRNA in cells and tissues.
Briefly, compounds are incubated in the presence or absence of an ER stress agent (e.g., DTT), and the ratio of XBP-1u (unspliced) to XBP-1 s (spliced) is quantified by RT-PCR. The ED50 is determined as the 50% XBP-1s to total XPB-1 levels.
For `COc1cc2c(C)c(CCC(=O)N3CCOCC3)c(=O)oc2c(C=O)c1O` [Example 172], the EC50 was below 10 µM.

For `COc1cc2c(CN3CCOCC3)c(C)c(=O)oc2c(C=O)c1O` [Example 132], the EC50 is below 10 µM.

Consider `CN(C)CCNC(=O)CCc1cc2c(C=O)c(O)ccc2s1` [Example 271], for which the EC50 is below 10 µM.

With `COc1cc2c(C)c(CC(=O)N3CCOCC3)c(=O)oc2c(C=O)c1O` [Example 167], the EC50 was below 10 µM.

In the case of `Cn1c(CCC(=O)O)nc2ccc(O)c(C=O)c21` [Example 240], the EC50 is above 10 µM.

Consider `CCOC(=O)c1cc2c(C=O)c(O)ccc2[nH]1` [Example 279], for which the EC50 was above 10 µM.

Consider `COc1cc2c(=O)c(CC(=O)N3CCN(C)CC3)c(C)oc2c(C=O)c1O` [Example 208], for which the EC50 is above 10 µM.

For the compound `Cc1oc2c(C=O)c(O)ccc2c(=O)c1CCC(=O)NCCN(C)C` [Example 218], the EC50 is above 10 µM.

`O=Cc1c(O)ccc2ocnc12` [Example 257]: the EC50 is above 10 µM.

On to `CCNC(=O)CCc1c(C)c2cc(OCCOC)c(O)c(C=O)c2oc1=O` [Example 183], for which the EC50 was below 10 µM.

Regarding `CCNC(=O)Cc1c(C)c2cc(OCCOC)c(O)c(C=O)c2oc1=O` [Example 191], the EC50 is below 10 µM.

For `COCCOc1cc2c(C)c(CC(=O)N3CCOCC3)c(=O)oc2c(C=O)c1O` [Example 188], the EC50 was below 10 µM.

Turning to `COCCOc1cc(O)c(C=O)c2oc(=O)c(CC(=O)N3CCOCC3)c(C)c12` [Example 160], the EC50 was below 10 µM.

As for `COCCOc1cc(O)c(C=O)c2oc(=O)c(CC(=O)NCCN(C)C)c(C)c12` [Example 164], the EC50 was above 10 µM.

As for `COCCNC(=O)CCc1nc2c(C=O)c(O)ccc2n1C` [Example 241], the EC50 is above 10 µM.

For the compound `Cn1c(CCC(=O)N2CCOCC2)nc2c(C=O)c(O)ccc21` [Example 242], the EC50 was above 10 µM.

In the case of `COCCNC(=O)CCc1c(C)oc2c(C=O)c(O)ccc2c1=O` [Example 215], the EC50 was below 10 µM.

Regarding `Cn1c(CCC(=O)N2CCOCC2)nc2ccc(O)c(C=O)c21` [Example 229], the EC50 is above 10 µM.

Take `COc1cc(O)c(C=O)c2oc(=O)c(CCC(=O)NCCN(C)C)c(C)c12` [Example 195]: the EC50 is below 10 µM.

As to `CN1CCN(C(=O)c2cc3c(C=O)c(O)ccc3[nH]2)CC1` [Example 275], the EC50 is above 10 µM.

Consider `Cc1nc2c(C=O)c(O)ccc2o1` [Example 255], for which the EC50 was below 10 µM.

With `CN(C)CCNC(=O)c1cc2c(C=O)c(O)ccc2s1` [Example 263], the EC50 was above 10 µM.

Consider `CN1CCN(C(=O)c2cc3c(C=O)c(O)ccc3s2)CC1` [Example 260], for which the EC50 was above 10 µM.

As for `CC1CCN(C(=O)c2ccc(-c3ccc4c(C=O)c(O)ccc4n3)cc2)CC1` [Compound 47], the EC50 was above 10 µM.

As to `COCCc1c(C)c2c(O)cc(O)c(C=O)c2oc1=O` [Example 123], the EC50 is below 10 µM.

`COCCNC(=O)Cc1c(C)c2c(OCCOC)cc(O)c(C=O)c2oc1=O` [Example 159]: the EC50 was below 10 µM.

Consider `COCCOc1cc2c(C)c(CC(=O)N3CCN(C)CC3)c(=O)oc2c(C=O)c1O` [Example 189], for which the EC50 was below 10 µM.

As for `O=Cc1c(O)ccc2[nH]c(CCC(=O)N3CCOCC3)nc12` [Example 232], the EC50 was above 10 µM.

As for `COCCNC(=O)CCc1nc2c(C=O)c(O)ccc2[nH]1` [Example 231], the EC50 was above 10 µM.

`COC(=O)c1ccc(-c2nc3ccc(O)c(C=O)c3[nH]2)cc1` [Compound 59]: the EC50 is above 10 µM.

As for `COc1cc2c(=O)c(CC(=O)NCCN3CCOCC3)c(C)oc2c(C=O)c1O` [Example 210], the EC50 was above 10 µM.

On to `CCNC(=O)CCc1nc2c(C=O)c(O)ccc2o1` [Example 252], for which the EC50 is above 10 µM.

On to `CN1CCN(C(=O)CCc2nc3c(C=O)c(O)ccc3o2)CC1` [Example 251], for which the EC50 is above 10 µM.

For `CCNC(=O)CCc1c(C)oc2c(C=O)c(O)c(OC)cc2c1=O` [Example 213], the EC50 is above 10 µM.

`COCCNC(=O)c1cc2c(C=O)c(O)ccc2o1` [Example 282]: the EC50 is above 10 µM.

`COCCNC(=O)Cc1c(C)c2cc(OCCOC)c(O)c(C=O)c2oc1=O` [Example 190]: the EC50 was below 10 µM.

Turning to `CN(C)CCNC(=O)c1cc2c(C=O)c(O)ccc2[nH]1` [Example 278], the EC50 was above 10 µM.

For the compound `Cc1oc2c(C=O)c(O)ccc2c(=O)c1CC(=O)NCCN(C)C` [Example 224], the EC50 was above 10 µM.

With `CN(C)CCNC(=O)CCc1nc2c(C=O)c(O)ccc2[nH]1` [Example 236], the EC50 is above 10 µM.

With `CN1CCN(C2CCN(c3nc4ccc(O)c(C=O)c4s3)C2)CC1` (centres unmarked) [Example 54], the EC50 was above 10 µM.

`O=Cc1c(O)ccc2oc(C(=O)NCCN3CCOCC3)cc12` [Example 286]: the EC50 is below 10 µM.

For `CCNC(=O)c1cc2c(C=O)c(O)ccc2o1` [Example 285], the EC50 is below 10 µM.

Consider `COCCOc1cc2c(C)c(CC(=O)NCCN3CCOCC3)c(=O)oc2c(C=O)c1O` [Example 187], for which the EC50 is below 10 µM.

`COc1cc2c(=O)c(CC(=O)NCCN(C)C)c(C)oc2c(C=O)c1O` [Example 211]: the EC50 is above 10 µM.

On to `COc1cc2c(=O)c(CCC(=O)N3CCN(C)CC3)c(C)oc2c(C=O)c1O` [Example 94], for which the EC50 was above 10 µM.

On to `COC(=O)Cc1cc2c(C=O)c(O)ccc2s1` [Example 264], for which the EC50 is above 10 µM.

As for `COc1cc(O)c(C=O)c2oc(=O)c(C)c(CN(C)C)c12` [Example 135], the EC50 was below 10 µM.

For `COc1cc2c(=O)c(CC(=O)N3CCOCC3)c(C)oc2c(C=O)c1O` [Example 207], the EC50 was above 10 µM.

`CC(C(=O)N1CCOCC1)c1nc2c(C=O)c(O)ccc2o1` (centres unmarked) [Example 254]: the EC50 was above 10 µM.

Take `CCNC(=O)Cc1c(C)oc2c(C=O)c(O)c(OC)cc2c1=O` [Example 209]: the EC50 was below 10 µM.

Take `Cc1c(CCC(=O)N2CCN(C)CC2)c(=O)oc2c(C=O)c(O)ccc12` [Example 15]: the EC50 was below 10 µM.

As for `CCNC(=O)CCc1nc2c(C=O)c(O)ccc2n1C` [Example 230], the EC50 is above 10 µM.

Turning to `Cc1oc2c(C=O)c(O)ccc2c(=O)c1CC(=O)N1CCOCC1` [Example 221], the EC50 is above 10 µM.

Take `CCNC(=O)Cc1c(C)c2c(OCCOC)cc(O)c(C=O)c2oc1=O` [Example 162]: the EC50 was below 10 µM.

As for `CCNC(=O)CCc1cc2c(C=O)c(O)ccc2s1` [Example 269], the EC50 is above 10 µM.

With `O=Cc1c(O)ccc2oc(C(=O)N3CCOCC3)cc12` [Example 283], the EC50 was above 10 µM.

With `COCCc1c(C)c2cc(OC)c(O)c(C=O)c2oc1=O` [Example 125], the EC50 is below 10 µM.

`CCNC(=O)c1cc2c(C=O)c(O)ccc2s1` [Example 261]: the EC50 was below 10 µM.

Still in this experiment, the particulars now being: MM1.S, read-out: EC50_av.
Take `O=Cc1c(O)ccc2cc(C(=O)O)c(=O)oc12` [Example 8]: the EC50 was above 10 µM.

In the case of `CN1CCN(C(=O)c2ccc(-c3nc4ccc(O)c(C=O)c4[nH]3)cc2)CC1` [Compound 62], the EC50 is above 10 µM.

Take `O=Cc1c(O)ccc2nc(N3CCC(NC(=O)CN4CCOCC4)C3)ccc12` (centres unmarked) [Compound 50]: the EC50 is below 10 µM.

For the compound `O=Cc1c(O)ccc2nc(-c3ccc(C(=O)O)cc3)[nH]c12` [Compound 58], the EC50 is above 10 µM.
